# From article PMC11532494 (Nature Communications, 2024)
# Where “and” joins values, the source holds several entries; their conditions need not be identical. Equal entries are not always repeated.
# How the values were obtained:
# [1] = target: PsApaH (4) (Pseudomonas sp. M30-35, UniProt A0A1Y0KY79); experiment: Acetyl-polyamine deacetylase assay; format: biochemical; details: for [acetate] (individual samples): acetate released from acetyl-polyamine substrate, Sample 1-3; for [acetate] mean: mean of samples
# Chain of PsApaH (4) (A0A1Y0KY79 1-342 limits assumed): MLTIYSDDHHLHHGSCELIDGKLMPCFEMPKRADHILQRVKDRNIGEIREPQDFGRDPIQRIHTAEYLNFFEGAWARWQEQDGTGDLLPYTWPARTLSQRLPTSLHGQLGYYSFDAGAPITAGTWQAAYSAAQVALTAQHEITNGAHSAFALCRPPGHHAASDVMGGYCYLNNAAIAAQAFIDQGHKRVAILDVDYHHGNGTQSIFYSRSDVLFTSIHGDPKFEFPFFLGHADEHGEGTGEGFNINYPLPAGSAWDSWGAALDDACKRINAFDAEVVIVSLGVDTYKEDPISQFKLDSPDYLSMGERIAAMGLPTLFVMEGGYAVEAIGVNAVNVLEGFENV
# [2] = target: PA1409 (Pseudomonas aeruginosa, UniProt Q9I3T5); experiment: Acetyl-polyamine deacetylase assay (positive control); format: biochemical; details: for [acetate] (individual samples): PA1409, acetate released from acetyl-polyamine substrate, Sample 1-2; for [acetate] mean: mean of samples
# Chain of PA1409 (Q9I3T5 whole entry): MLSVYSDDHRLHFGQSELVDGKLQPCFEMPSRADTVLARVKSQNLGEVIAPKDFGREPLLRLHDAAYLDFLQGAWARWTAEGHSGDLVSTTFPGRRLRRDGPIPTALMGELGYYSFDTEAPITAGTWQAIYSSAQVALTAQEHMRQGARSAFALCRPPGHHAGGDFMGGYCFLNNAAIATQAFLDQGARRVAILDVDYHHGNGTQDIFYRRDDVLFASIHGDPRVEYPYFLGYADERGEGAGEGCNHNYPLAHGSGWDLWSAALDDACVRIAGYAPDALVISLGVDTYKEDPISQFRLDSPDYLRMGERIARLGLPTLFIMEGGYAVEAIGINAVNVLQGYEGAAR
Compound,[acetate] (individual samples) ([1]; time 5 min),[acetate] (individual samples) ([1]; time 10 min),[acetate] (individual samples) ([1]; time 20 min),[acetate] (individual samples) ([1]; time 45 min),[acetate] mean ([1]; time 5 min) [mM],[acetate] mean ([1]; time 10 min) [mM],[acetate] mean ([1]; time 20 min) [mM],[acetate] mean ([1]; time 45 min) [mM],[acetate] (individual samples) ([2]; time 5 min),[acetate] (individual samples) ([2]; time 10 min),[acetate] (individual samples) ([2]; time 20 min),[acetate] (individual samples) ([2]; time 45 min),"[acetate] mean ([2]; PA1409, time 5 min) [mM]","[acetate] mean ([2]; PA1409, time 10 min) [mM]","[acetate] mean ([2]; PA1409, time 20 min) [mM]","[acetate] mean ([2]; PA1409, time 45 min) [mM]"
CC(=O)NCCCNCCCCN [N1-acetylspermidine],0.06608 mM and 0.08811 mM,0.06608 mM and 0.1322 mM,0.3304 mM and 0.3084 mM,0.2643 mM and 0.3965 mM,0.07709,0.09912,0.3194,0.3304,1.542 mM and 1.762 mM,8.1499 mM and 9.163 mM,14.4496 mM and 14.5817 mM,15.6831 mM and 14.9782 mM,1.652,8.657,14.5156,15.3306
CC(=O)NCCCCN [N1-acetylputrescine],1.6 mM (2×) and 2.1 mM,8.8 mM and 8.3 mM and 8 mM,12 mM and 13 mM and 12.2 mM,18 mM and 16.6 mM and 17.6 mM,1.767,8.367,12.4,17.4,2.66 mM and 2.46 mM,–,10.76 mM and 10.61 mM,15.78 mM and 16.29 mM,2.56,–,10.685,16.035
CC(=O)NCCCCNCCCN [N8-acetylspermidine],–,2.185 mM and 2.098 mM and 1.946 mM,3.446 mM and 3.4674 mM and 3.489 mM,4.967 mM and 5.12 mM (2×),–,2.076,3.4674,5.069,5.081 mM and 5.477 mM,19.9519 mM and 19.336 mM,23.7355 mM and 22.9876 mM,24.7914 mM and 25.3193 mM,5.279,19.6439,23.3615,25.0553
CC(=O)NCCCCCN [N1-acetylcadaverine],2.228 mM and 2.337 mM and 2.011 mM,5.272 mM and 5.38 mM and 5.337 mM,7.446 mM and 7.663 mM and 8.054 mM,9.337 mM and 10.2283 mM and 9.967 mM,2.192,5.33,7.721,9.844,3.7616 mM and 3.63 mM,14.5405 mM and 14.4965 mM,22.4156 mM and 22.0637 mM,23.2955 mM and 23.4715 mM,3.696,14.5185,22.2396,23.3835
CC(=O)NCCCNCCCCNCCCN [N1-acetylspermine],3.446 mM and 3.815 mM and 3.598 mM,5.9022 mM and 5.728 mM and 6.011 mM,8.6196 mM and 9.685 mM and 8.576 mM,12.6414 mM and 13.25 mM and 13.0327 mM,3.62,5.88,8.96,12.9747,4.758 mM and 5.242 mM,18.4144 mM and 18.3703 mM,24.4938 mM and 25.2427 mM,26.7845 mM and 27.0048 mM,5,18.3923,24.8682,26.8947
CC(=O)NCCCNCCCCNCCCN [N1/N12-acetylspermine],2.337 mM and 2.446 mM and 2.554 mM,4.0761 mM and 4.1848 mM and 4.12 mM,7.467 mM and 7.707 mM and 7.62 mM,11.6196 mM and 12.1848 mM and 11.8587 mM,2.446,4.127,7.598,11.8877,3.921 mM and 3.216 mM,19.1192 mM and 18.2382 mM,34.0974 mM and 33.8331 mM,42.3354 mM and 46.7408 mM,3.568,18.6787,33.9653,44.5381
